Laboratory results from paper PMC10714400, “Antimicrobial Peptide–Peptoid Hybrids with and without Membrane Disruption” (ACS Infectious Diseases, 2023).
Values after ≈ are worked out from the molar mass of the structure shown. Where two headings read alike, the source gives them in different places. Where a SMILES comes first, the peptide text is derived from it. [ ]: non-standard residue; d: D form. Nleu = CC(C)CNCC(=O)O; Nlys = NCCCCNCC(=O)O

Key:
K. pneumoniae NCTC418 = details: for MIC K. pneumoniae NCTC418 […] 7.4 / MIC K. pneumoniae NCTC418 […] 8.5 / MIC K. pneumoniae NCTC418 Full MH 7.4 / MIC K. pneumoniae NCTC418 Full MH 8.5: Table S2; for MIC K. pneumoniae NCTC418 […] 7.4 / MIC K. pneumoniae NCTC418 […] 8.5: […] MH; for MIC K. pneumoniae NCTC418 […] 8.5 / MIC K. pneumoniae NCTC418 Full MH 8.5: pH 8.5; for MIC K. pneumoniae NCTC418 […]: diluted MH ([…] MH, pH 8.5) per Table 1 footnote b, 16–20 h at 37 °C; for MIC K. pneumoniae NCTC418 Full MH 7.4 / MIC K. pneumoniae NCTC418 Full MH 8.5 / MIC K. pneumoniae NCTC418 Full: full MH; for MIC K. pneumoniae NCTC418 Full: pH 7.4, 16–20 h at 37 °C
In short: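 MTT added (20–30 min, room temperature); MIC read by eye as lowest concentration inhibiting visible growth (yellow). Polymyxin B positive control from 16 μg/mL.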

PA14 4.13 (phoQ) = details: for MIC P. aeruginosa PA14 4.13, […] MH at pH 8.5 / MIC P. aeruginosa PA14 4.13, full MH at pH 7.4: CSV; for MIC PA14 4.13 (phoQ): MH pH 7.4, 16–20 h at 37 °C; for MIC P. aeruginosa PA14 4.13: Table S3; for MIC P. aeruginosa PA14 4.13, […] MH at pH 8.5 / MIC P. aeruginosa PA14 4.13: […] MH at pH 8.5
In short: (§1)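 MIC read visually after MTT staining: lowest compound concentration preventing visible growth (yellow wells). Inoculum ~5 × 10^5 CFU per well in MH broth; static incubation at 37 °C for ca. 18 h.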

E. cloacae = test system: E. cloacae
In short: as §1

E. coli W3110 = details: for MIC E. coli W3110, […] MH at pH 7.4 / MIC E. coli W3110, […] MH at pH 8.5 / MIC E. coli W3110, full MH at pH 7.4: CSV; for MIC E. coli W3110 […] 7.4 / MIC E. coli W3110 […] 8.5 / MIC E. coli W3110 Full MH 7.4 / MIC E. coli W3110 Full MH 8.5: Table S2; for MIC E. coli W3110 […] 7.4 / MIC E. coli W3110 […] 8.5: […] MH; for MIC E. coli W3110 […] 7.4 / MIC E. coli W3110 Full MH 7.4: pH 7.4; for MIC E. coli W3110 […] 8.5 / MIC E. coli W3110 Full MH 8.5: pH 8.5
In short: as §1

[1] = Circular dichroism, α-helical content; assay type: physicochemical; details: 0.1 mg/mL; for CD %α with 5 mM DPC: 10 mM phosphate buffer pH 7.4, 5 mM DPC; for CD %α with 20% TFE: 10 mM phosphate buffer pH 7.4, 20% TFE

Molecule: CC(C)C[C@H](NC(=O)[C@H](CC(C)C)NC(=O)[C@H](CC(C)C)NC(=O)[C@@H](CCCCN)NC(=O)[C@H](CC(C)C)NC(=O)[C@H](CC(C)C)NC(=O)[C@@H](CCCCN)NC(=O)[C@H](CC(C)C)NC(=O)[C@H](CC(C)C)NC(=O)[C@@H](CCCCN)NC(=O)[C@H](N)CCCCN)C(N)=O [ln69, kkLLkLLkLLL, reference compound] (H-[dK][dK]LL[dK]LL[dK]LLL-NH2)
- MIC K. pneumoniae NCTC418, […] MH at pH 7.4 (K. pneumoniae NCTC418; CSV): 4 ug/mL
- MIC K. pneumoniae NCTC418, […] MH at pH 8.5 (K. pneumoniae NCTC418; CSV): 2 ug/mL
- MIC K. pneumoniae NCTC418, full MH at pH 7.4 (K. pneumoniae NCTC418; CSV, full MH at pH 7.4): 8 ug/mL
- MIC K. pneumoniae NCTC418, full MH at pH 8.5 (K. pneumoniae NCTC418; CSV): 16 ug/mL
- MIC K. pneumoniae NCTC418 […] 7.4 (K. pneumoniae NCTC418; pH 7.4): 4 µg/mL (≈ 3.03 µM)
- MIC K. pneumoniae NCTC418 […] 8.5 (K. pneumoniae NCTC418): 2 µg/mL (≈ 1.51 µM)
- MIC K. pneumoniae NCTC418 Full MH 7.4 (K. pneumoniae NCTC418; pH 7.4): 8 µg/mL (≈ 6.05 µM)
- MIC K. pneumoniae NCTC418 Full MH 8.5 (K. pneumoniae NCTC418): 16 µg/mL (≈ 12.1 µM)
- MIC K. pneumoniae NCTC418 […] (K. pneumoniae NCTC418): 4 µg/mL (≈ 3.03 µM)
- MIC K. pneumoniae NCTC418 Full (K. pneumoniae NCTC418): 8 µg/mL (≈ 6.05 µM)
- MIC P. aeruginosa PA14 4.13, […] MH at pH 8.5 (PA14 4.13 (phoQ)): 3 ug/mL
- MIC P. aeruginosa PA14 4.13, full MH at pH 7.4 (PA14 4.13 (phoQ)): 4 ug/mL
- MIC PA14 4.13 (phoQ) (PA14 4.13 (phoQ)): 4 µg/mL (≈ 3.03 µM)
- MIC P. aeruginosa PA14 4.13 (PA14 4.13 (phoQ)): 2 to 4 µg/mL
- MIC E. cloacae, […] MH at pH 8.5 (E. cloacae; CSV, […] MH at pH 8.5): 2 ug/mL
- MIC E. cloacae, full MH at pH 7.4 (E. cloacae; CSV, full MH at pH 7.4): 4 ug/mL
- MIC E. cloacae (E. cloacae; MH pH 7.4, 16–20 h at 37 °C): 4 µg/mL (≈ 3.03 µM)
- MIC E. cloacae (E. cloacae; Table S3, […] MH at pH 8.5): 2 µg/mL (≈ 1.51 µM)
- MIC E. coli W3110, […] MH at pH 7.4 (E. coli W3110): 2 ug/mL
- MIC E. coli W3110, […] MH at pH 8.5 (E. coli W3110): 2 ug/mL
- MIC E. coli W3110, full MH at pH 7.4 (E. coli W3110): 4 ug/mL
- MIC E. coli W3110 […] 7.4 (E. coli W3110): 2 µg/mL (≈ 1.51 µM)
- MIC E. coli W3110 […] 8.5 (E. coli W3110): 2 µg/mL (≈ 1.51 µM)
- MIC E. coli W3110 Full MH 7.4 (E. coli W3110): 4 µg/mL (≈ 3.03 µM)
- MIC E. coli W3110 Full MH 8.5 (E. coli W3110): 16 µg/mL (≈ 12.1 µM)
- CD %α with 5 mM DPC ([1]; DichroWeb, Contin-LL): 61%
- CD %α with 20% TFE ([1]; DichroWeb, Contin-LL): 34%
- CD %α with 5 mM DPC ([1]; Table S2): 61%
- CD %α with 20% TFE ([1]; Table S2): 34%

Molecule: CC(C)C[C@H](NC(=O)[C@H](CCCCN)NC(=O)CNCCCCN)C(=O)N[C@@H](CC(C)C)C(=O)N[C@@H](CCCCN)C(=O)N[C@@H](CC(C)C)C(=O)N[C@@H](CC(C)C)C(=O)N[C@@H](CCCCN)C(=O)N[C@@H](CC(C)C)C(=O)N[C@@H](CC(C)C)C(=O)N(CC(N)=O)CC(C)C [EB1] (H-[Nlys]KLLKLLKLL[Nleu]-NH2; N-terminus assumed)
- MIC K. pneumoniae NCTC418, full MH at pH 7.4 (K. pneumoniae NCTC418; NCTC418, 4 h, pH 7.4): 8 ug/mL
- MIC K. pneumoniae NCTC418 […] 7.4 (K. pneumoniae NCTC418; pH 7.4): 2 µg/mL (≈ 1.51 µM)
- MIC K. pneumoniae NCTC418 Full MH 7.4 (K. pneumoniae NCTC418; pH 7.4): 8 µg/mL (≈ 6.05 µM)
- MIC K. pneumoniae NCTC418 Full MH 8.5 (K. pneumoniae NCTC418): > 32 µg/mL
- MIC P. aeruginosa PA14 4.13, […] MH at pH 8.5 (PA14 4.13 (phoQ)): 2 ug/mL
- MIC P. aeruginosa PA14 4.13, full MH at pH 7.4 (PA14 4.13 (phoQ)): 8 ug/mL
- MIC PA14 4.13 (phoQ) (PA14 4.13 (phoQ)): 8 µg/mL (≈ 6.05 µM)
- MIC P. aeruginosa PA14 4.13 (PA14 4.13 (phoQ)): 2 µg/mL (≈ 1.51 µM)
- MIC E. cloacae, full MH at pH 7.4 (E. cloacae; 4 h, pH 7.4): 8 ug/mL
- MIC E. cloacae (E. cloacae; pH 7.4): 8 µg/mL (≈ 6.05 µM)
- MIC E. coli W3110, […] MH at pH 7.4 (E. coli W3110): 2 ug/mL
- MIC E. coli W3110, full MH at pH 7.4 (E. coli W3110): 2 ug/mL
- MIC E. coli W3110 […] 7.4 (E. coli W3110): 2 µg/mL (≈ 1.51 µM)
- MIC E. coli W3110 […] 8.5 (E. coli W3110): 1 µg/mL (≈ 0.757 µM)
- MIC E. coli W3110 Full MH 7.4 (E. coli W3110): 2 µg/mL (≈ 1.51 µM)
- MIC E. coli W3110 Full MH 8.5 (E. coli W3110): 32 µg/mL (≈ 24.2 µM)
- MIC E. coli W3110 […] (E. coli W3110; diluted MH ([…] MH, pH 8.5) per Table 1 footnote b, 16–20 h at 37 °C): 2 µg/mL (≈ 1.51 µM)
- CD %α with 5 mM DPC ([1]; DichroWeb, Contin-LL): 30%
- CD %α with 20% TFE ([1]; DichroWeb, Contin-LL): 26%
- CD %α with 5 mM DPC ([1]; Table S2): 30%
- CD %α with 20% TFE ([1]; Table S2): 26%

Molecule: H-KKLLKLLKLLL-NH2 [ln65, reference compound]
- MIC K. pneumoniae NCTC418, […] MH at pH 7.4 (K. pneumoniae NCTC418; CSV): 3 ug/mL
- MIC K. pneumoniae NCTC418, […] MH at pH 8.5 (K. pneumoniae NCTC418; CSV): 2 ug/mL
- MIC K. pneumoniae NCTC418, full MH at pH 7.4 (K. pneumoniae NCTC418; CSV, full MH at pH 7.4): 4 ug/mL
- MIC K. pneumoniae NCTC418, full MH at pH 8.5 (K. pneumoniae NCTC418; CSV): 8 ug/mL
- MIC K. pneumoniae NCTC418 […] 7.4 (K. pneumoniae NCTC418; pH 7.4): 2 to 4 µg/mL
- MIC K. pneumoniae NCTC418 […] 8.5 (K. pneumoniae NCTC418): 2 µg/mL
- MIC K. pneumoniae NCTC418 Full MH 7.4 (K. pneumoniae NCTC418; pH 7.4): 4 µg/mL
- MIC K. pneumoniae NCTC418 Full MH 8.5 (K. pneumoniae NCTC418): 8 µg/mL
- MIC K. pneumoniae NCTC418 […] (K. pneumoniae NCTC418): 2 to 4 µg/mL
- MIC K. pneumoniae NCTC418 Full (K. pneumoniae NCTC418): 4 µg/mL
- MIC P. aeruginosa PA14 4.13, […] MH at pH 8.5 (PA14 4.13 (phoQ)): 2 ug/mL
- MIC P. aeruginosa PA14 4.13, full MH at pH 7.4 (PA14 4.13 (phoQ)): 4 ug/mL
- MIC PA14 4.13 (phoQ) (PA14 4.13 (phoQ)): 4 µg/mL
- MIC P. aeruginosa PA14 4.13 (PA14 4.13 (phoQ)): 2 µg/mL
- MIC E. cloacae, […] MH at pH 8.5 (E. cloacae; CSV, […] MH at pH 8.5): 4 ug/mL
- MIC E. cloacae, full MH at pH 7.4 (E. cloacae; CSV, full MH at pH 7.4): 2 ug/mL
- MIC E. cloacae (E. cloacae; MH pH 7.4, 16–20 h at 37 °C): 2 µg/mL
- MIC E. cloacae (E. cloacae; Table S3, […] MH at pH 8.5): 4 µg/mL
- MIC E. coli W3110, […] MH at pH 7.4 (E. coli W3110): 2 ug/mL
- MIC E. coli W3110, […] MH at pH 8.5 (E. coli W3110): 2 ug/mL
- MIC E. coli W3110, full MH at pH 7.4 (E. coli W3110): 4 ug/mL
- MIC E. coli W3110 […] 7.4 (E. coli W3110): 2 µg/mL
- MIC E. coli W3110 […] 8.5 (E. coli W3110): 2 µg/mL
- MIC E. coli W3110 Full MH 7.4 (E. coli W3110): 4 µg/mL
- MIC E. coli W3110 Full MH 8.5 (E. coli W3110): 8 µg/mL
- CD %α with 5 mM DPC ([1]; DichroWeb, Contin-LL): 73%
- CD %α with 20% TFE ([1]; DichroWeb, Contin-LL): 64%
- CD %α with 5 mM DPC ([1]; Table S2): 73%
- CD %α with 20% TFE ([1]; Table S2): 64%
